Data published in patent US12655116B2, “Substituted isophthalic acid diamides” (Bayer Aktiengesellschaft, priority 2020, dated 2026).

Key:
STEME [1] = assay: Post-emergence herbicidal action against STEME; format: in vivo, Stellaria media
Method in brief: (§1)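 Sandy loam, greenhouse; treatment 2–3 weeks after sowing, one-leaf stage. Aqueous suspension or emulsion from WP/EC sprayed on foliage (600–800 l/ha, 0.2% wetting agent). Readout: visual % action, ~3 weeks.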

ALOMY [2] = assay: Post-emergence herbicidal action against ALOMY; format: in vivo, Alopecurus myosuroides; conditions: dosage 20 g/ha, visual assessment about 3 weeks after treatment vs untreated controls
Method in brief: as §1

AMARE [3] = assay: Pre-emergence herbicidal action against AMARE; format: in vivo, Amaranthus retroflexus
Method in brief: (§2)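 Seeds sown in sandy loam, soil-covered; compound sprayed on soil surface pre-emergence. Application: WP/EC, 600–800 l/ha, 0.2% wetting agent. Readout: visual % damage at 3 weeks.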

ALOMY [4] = assay: Pre-emergence herbicidal action against ALOMY; format: in vivo, Alopecurus myosuroides; conditions: 80 g/ha, pre-emergence, scored visually after 3 weeks vs untreated controls (100% = plants have died, 0% = like control plants)
Method in brief: as §2

MATIN [5] = assay: Pre-emergence herbicidal action against MATIN; format: in vivo, Matricaria inodora
Method in brief: as §2

ABUTH [6] = assay: Post-emergence herbicidal action against ABUTH; format: in vivo, Abutilon theophrasti; conditions: visual assessment about 3 weeks after treatment vs untreated controls
Method in brief: as §1

AVEFA [7] = assay: Pre-emergence herbicidal action against AVEFA; format: in vivo, Avena fatua; conditions: 80 g/ha, pre-emergence
Method in brief: as §2

STEME [8] = assay: Pre-emergence herbicidal action against STEME; format: in vivo, Stellaria media
Method in brief: as §2

SETVI [9] = assay: Pre-emergence herbicidal action against SETVI; format: in vivo, Setaria viridis; conditions: dosage 80 g/ha
Method in brief: as §2

ECHCG [10] = assay: Post-emergence herbicidal action against ECHCG; format: in vivo, Echinochloa crus-galli
Method in brief: as §1

ABUTH [11] = assay: Pre-emergence herbicidal action against ABUTH; format: in vivo, Abutilon theophrasti; conditions: for Pre-emergence action against ABUTH (herbicidal activity in percent): dosage 20 g/ha, scored visually after 3 weeks vs untreated controls, 100% = plants have died, 0% = like control plants
Method in brief: as §2

MATIN [12] = assay: Post-emergence herbicidal action against MATIN; format: in vivo, Matricaria inodora; conditions: dosage 20 g/ha
Method in brief: as §1

HORMU = assay: Pre-emergence herbicidal action against HORMU; format: in vivo, Hordeum murinum; conditions: 80 g/ha, pre-emergence
Text: Seeds of monocotyledonous and dicotyledonous weed plants and crop plants are laid out in sandy loam soil in wood-fiber pots and covered with soil. The compounds of the invention, formulated in the form of wettable powders (WP) or as emulsion concentrates (EC), are then applied to the surface of the covering soil in the form of an aqueous suspension or emulsion at a water application rate equivalent to 600 to 800 l/ha, with addition of 0.2% wetting agent. After the treatment, the pots are placed in a greenhouse and kept under good growth conditions for the trial plants. The damage to the test plants is scored visually after a test period of 3 weeks by comparison with untreated controls (herbicidal activity in percent (%): 100% activity=the plants have died, 0% activity=like control plants). […] The tables below illustrate, in an illustrative manner, the post-emergence herbicidal action of the compounds of the invention, the herbicidal activity being stated in percent.

AMARE [13] = assay: Post-emergence herbicidal action against AMARE; format: in vivo, Amaranthus retroflexus; conditions: 20 g/ha, visual assessment about 3 weeks after treatment, 100% = plants have died, 0% = like control plants
Method in brief: as §1

ECHCG [14] = assay: Pre-emergence herbicidal action against ECHCG; format: in vivo, Echinochloa crus-galli; conditions: 80 g/ha
Method in brief: as §2

DIGSA [15] = assay: Post-emergence herbicidal action against DIGSA; format: in vivo, Digitaria sanguinalis
Method in brief: as §1

PHBPU [16] = assay: Post-emergence herbicidal action against PHBPU; format: in vivo, Pharbitis purpurea; conditions: dosage 20 g/ha
Method in brief: as §1

VIOTR [17] = assay: Pre-emergence herbicidal action against VIOTR; format: in vivo, Viola tricolor
Method in brief: as §2

DIGSA [18] = assay: Pre-emergence herbicidal action against DIGSA; format: in vivo, Digitaria sanguinalis
Method in brief: as §2

POLCO = assay: Pre-emergence herbicidal action against POLCO; format: in vivo, Polygonum convolvulus; conditions: dosage 80 g/ha
Method in brief: as §2

VERPE [19] = assay: Pre-emergence herbicidal action against VERPE; format: in vivo, Veronica persica
Method in brief: as §2

AVEFA [20] = assay: Post-emergence herbicidal action against AVEFA; format: in vivo, Avena fatua; conditions: 20 g/ha, visual assessment about 3 weeks after treatment, 100% = plants have died, 0% = like control plants
Method in brief: as §1

SETVI [21] = assay: Post-emergence herbicidal action against SETVI; format: in vivo, Setaria viridis; conditions: Setaria viridis, 504 h, dosage 20 g/ha
Method in brief: as §1

VIOTR [22] = assay: Post-emergence herbicidal action against VIOTR; format: in vivo, Viola tricolor; conditions: 20 g/ha
Method in brief: as §1

VERPE [23] = assay: Post-emergence herbicidal action against VERPE; format: in vivo, Veronica persica; conditions: 20 g/ha
Method in brief: as §1

PHBPU [24] = assay: Pre-emergence herbicidal action against PHBPU; format: in vivo, Pharbitis purpurea; conditions: dosage 80 g/ha
Method in brief: as §2

[25] = 20 g/ha, scored visually after 3 weeks vs untreated controls, 100% = plants have died, 0% = like control plants
[26] = 80 g/ha, scored visually after 3 weeks vs untreated controls (100% = plants have died, 0% = like control plants)

## CCNC(=O)c1c(C(F)(F)F)ccc(C(=O)Nc2nnc(C)o2)c1Br [Example 6-159]
STEME [1]; 20 g/ha
  Post-emergence action against STEME in %: 90%
ALOMY [2]
  Post-emergence action against ALOMY in %: 80%
AMARE [3]; [25]
  Pre-emergence action against AMARE in %: 100%
AMARE [3]; [26]
  Pre-emergence action against AMARE in %: 100%
ALOMY [4]
  Pre-emergence action against ALOMY (herbicidal activity): 80%
MATIN [5]; dosage 20 g/ha
  Pre-emergence action against MATIN in %: 100%
MATIN [5]; dosage 80 g/ha
  Pre-emergence action against MATIN in %: 100%
ABUTH [6]; dosage 5 g/ha
  Post-emergence action against ABUTH in %: 90%
ABUTH [6]; dosage 20 g/ha
  Post-emergence action against ABUTH in %: 100%
AVEFA [7]
  Pre-emergence action against AVEFA in %: 90%
STEME [8]; dosage 20 g/ha
  Pre-emergence action against STEME in %: 80%
STEME [8]; dosage 80 g/ha
  Pre-emergence action against STEME in %: 100%
SETVI [9]
  Pre-emergence action against SETVI in %: 100%
ECHCG [10]; dosage 5 g/ha
  Post-emergence action against ECHCG in %: 80%
ECHCG [10]; dosage 20 g/ha
  Post-emergence action against ECHCG in %: 90%
ABUTH [11]; [26]
  Pre-emergence action against ABUTH (herbicidal activity): 100%
ABUTH [11]
  Pre-emergence action against ABUTH (herbicidal activity in percent): 100%
MATIN [12]
  Post-emergence action against MATIN in %: 90%
HORMU
  Pre-emergence action against HORMU in %: 80%
AMARE [13]
  Post-emergence action at 20 g/ha against AMARE in %: 100%
ECHCG [14]
  Pre-emergence action against ECHCG in %: 100%
DIGSA [15]; 5 g/ha
  Post-emergence action against DIGSA in %: 80%
DIGSA [15]; 20 g/ha
  Post-emergence action against DIGSA: 90%
PHBPU [16]
  Post-emergence action against PHBPU in %: 80%
VIOTR [17]; dosage 80 g/ha
  Pre-emergence action against VIOTR in %: 100%
DIGSA [18]; dosage 20 g/ha
  Pre-emergence action against DIGSA in %: 90%
DIGSA [18]; dosage 80 g/ha
  Pre-emergence action against DIGSA in %: 100%
POLCO
  Pre-emergence action against POLCO in %: 80%

## CNC(=O)c1c(Cl)ccc(C(=O)Nc2nnnn2C)c1C [Example 1-4]
STEME [1]; Stellaria media, 504 h, 20 g/ha
  pest or weed control at 20 g/ha: 90%
STEME [1]; Stellaria media, 504 h, dosage 5 g/ha
  pest or weed control at 5 g/ha: 80%
ALOMY [2]; Alopecurus myosuroides, 504 h
  pest or weed control at 20 g/ha: 80%
AMARE [3]; Amaranthus retroflexus, 504 h, 20 g/ha, scored visually after 3 weeks vs untreated controls, 100% = plants have died, 0% = like control plants
  pest or weed control at 20 g/ha: 90%
AMARE [3]; Amaranthus retroflexus, 504 h, 80 g/ha, scored visually after 3 weeks vs untreated controls, 100% = plants have died, 0% = like control plants
  pest or weed control at 80 g/ha: 100%
ALOMY [4]; Alopecurus myosuroides, 504 h
  pest or weed control at 80 g/ha: 80%
MATIN [5]; Tripleurospermum inodorum, 504 h, dosage 80 g/ha
  pest or weed control at 80 g/ha: 100%
ABUTH [6]; Abutilon theophrasti, 504 h, dosage 5 g/ha
  pest or weed control at 5 g/ha: 90%
ABUTH [6]; Abutilon theophrasti, 504 h, dosage 20 g/ha
  pest or weed control at 20 g/ha: 90%
AVEFA [7]; Avena fatua, 504 h
  pest or weed control at 80 g/ha: 90%
STEME [8]; Stellaria media, 504 h, dosage 80 g/ha
  pest or weed control at 80 g/ha: 90%
SETVI [9]; Setaria viridis, 504 h
  pest or weed control at 80 g/ha: 100%
ECHCG [10]; Echinochloa crus-galli, 504 h, dosage 20 g/ha
  pest or weed control at 20 g/ha: 100%
VERPE [19]; Veronica persica, 504 h, dosage 20 g/ha
  pest or weed control at 20 g/ha: 80%
VERPE [19]; Veronica persica, 504 h, dosage 80 g/ha
  pest or weed control at 80 g/ha: 90%
ABUTH [11]; Abutilon theophrasti, 504 h, 80 g/ha, scored visually after 3 weeks vs untreated controls (100% = plants have died, 0% = like control plants)
  pest or weed control at 80 g/ha: 100%
HORMU; Hordeum murinum, 504 h
  pest or weed control at 80 g/ha: 80%
AVEFA [20]; Avena fatua, 504 h
  pest or weed control at 20 g/ha: 80%
AMARE [13]; Amaranthus retroflexus, 504 h
  pest or weed control at 20 g/ha: 90%
ECHCG [14]; Echinochloa crus-galli, 504 h
  pest or weed control at 80 g/ha: 90%
SETVI [21]
  pest or weed control at 20 g/ha: 80%
DIGSA [15]; Digitaria sanguinalis, 504 h, 5 g/ha
  pest or weed control at 5 g/ha: 80%
DIGSA [15]; Digitaria sanguinalis, 504 h, 20 g/ha
  pest or weed control at 20 g/ha: 90%
DIGSA [18]; Digitaria sanguinalis, 504 h, dosage 80 g/ha
  pest or weed control at 80 g/ha: 100%

## CCCn1nnnc1NC(=O)c1ccc(C(F)(F)F)c(C(=O)NC(C)=O)c1Cl [Example 3-337]
STEME [1]; 20 g/ha
  Post-emergence action against STEME in %: 100%
AMARE [3]; [25]
  Pre-emergence action against AMARE in %: 100%
AMARE [3]; [26]
  Pre-emergence action against AMARE in %: 100%
ALOMY [4]
  Pre-emergence action against ALOMY (herbicidal activity): 100%
MATIN [5]; dosage 80 g/ha
  Pre-emergence action against MATIN in %: 100%
VIOTR [22]
  Post-emergence action against VIOTR in %: 100%
ABUTH [6]; dosage 5 g/ha
  Post-emergence action against ABUTH in %: 80%
ABUTH [6]; dosage 20 g/ha
  Post-emergence action against ABUTH in %: 80%
AVEFA [7]
  Pre-emergence action against AVEFA in %: 100%
STEME [8]; dosage 80 g/ha
  Pre-emergence action against STEME in %: 100%
VERPE [19]; dosage 80 g/ha
  Pre-emergence action against VERPE in %: 100%
ABUTH [11]; [26]
  Pre-emergence action against ABUTH (herbicidal activity): 100%
ABUTH [11]
  Pre-emergence action against ABUTH (herbicidal activity in percent): 100%
MATIN [12]
  Post-emergence action against MATIN in %: 80%
HORMU
  Pre-emergence action against HORMU in %: 100%
AVEFA [20]
  Post-emergence action at 20 g/ha against AVEFA in %: 80%
AMARE [13]
  Post-emergence action at 20 g/ha against AMARE in %: 100%
ECHCG [14]
  Pre-emergence action against ECHCG in %: 90%
VERPE [23]
  Post-emergence action against VERPE in %: 90%
VIOTR [17]; dosage 20 g/ha
  Pre-emergence action against VIOTR in %: 100%
VIOTR [17]; dosage 80 g/ha
  Pre-emergence action against VIOTR in %: 100%
DIGSA [18]; dosage 20 g/ha
  Pre-emergence action against DIGSA in %: 90%
DIGSA [18]; dosage 80 g/ha
  Pre-emergence action against DIGSA in %: 100%
PHBPU [24]
  Pre-emergence action against PHBPU in %: 90%
